Legend:
[1] = molecular target: T1, PDI mutant in which the CGHC motif is mutated to AGHA (Homo sapiens, UniProt P07237, C397A/C400A/C53A/C56A); experiment: Di-eosin-GSSG disulfide reductase assay, catalytically inactive mutant; assay type: biochemical; conditions: FIG. 1c
T1 sequence (P07237 18-508 C53A/C56A/C397A/C400A): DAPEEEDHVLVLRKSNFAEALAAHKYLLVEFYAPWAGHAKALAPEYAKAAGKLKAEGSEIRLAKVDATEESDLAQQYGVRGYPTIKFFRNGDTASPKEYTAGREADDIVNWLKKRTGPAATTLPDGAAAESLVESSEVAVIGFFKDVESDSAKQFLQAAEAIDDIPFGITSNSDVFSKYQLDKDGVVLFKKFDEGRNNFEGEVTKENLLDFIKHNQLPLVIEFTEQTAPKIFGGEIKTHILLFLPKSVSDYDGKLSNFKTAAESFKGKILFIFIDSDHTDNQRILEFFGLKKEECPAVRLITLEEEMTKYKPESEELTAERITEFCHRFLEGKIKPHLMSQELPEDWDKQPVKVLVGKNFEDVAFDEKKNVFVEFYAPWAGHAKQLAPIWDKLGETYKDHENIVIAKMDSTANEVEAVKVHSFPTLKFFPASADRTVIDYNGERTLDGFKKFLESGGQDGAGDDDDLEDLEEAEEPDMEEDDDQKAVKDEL
Method: The probe di-eosin glutathione disulfide, di-eosin-GSSG, was prepared as previously described in Raturi, A., Vacratsis, P. O., Seslija, D., Lee, L. & Mutus, B., Biochem J 391, 351-357 (2005). Reductase activity of purified thiol isomerases and PDI domains was monitored in a 96-well fluorescence plate format. PDI, AGHA-PDI, ERpS, ERp57, ERp72 and PDI domains were assayed at 50 nM in the presence or absence of the indicated small molecules, peptides or cathepsin G. The assay included 100 mM potassium phosphate (pH 7.4) containing 2 mM EDTA, 5 μM DTT and 150 nM of the di-eosin GSSG probe. The increase in fluorescence was determined for 20 minutes by excitation at 520 nm and emission at 550 nm in a Synergy Biotek 4. The reduction of 150 nM di-eosin-GSSG by 5 μM DTT in the presence or absence of mentioned small molecules, peptides or proteins served as a negative control.

[2] = test system: platelet accumulation at sites of laser-induced injury; experiment: Thrombus formation in cremaster arterioles after laser-induced injury, intravital microscopy; assay type: in vivo; conditions: mice
Method: Intravital video microscopy of the cremaster muscle microcirculation was performed as described previously in Falati, S., Gross, P., Merrill-Skoloff, G., Furie, B. C. & Furie, Nat Med 8, 1175-81. (2002); and Jasuj a, R. et al., J Clin Invest 122, 2104-2113 (2012). Digital images were captured with an Orca Flash 4.0v2 sCMOS camera (Hamamatsu Photonics K.K., Shizuoka Pref., Japan). Representative images are presented, but the median curves include the full data. The kinetics of platelet thrombus formation were analyzed by determining median fluorescence values over time in ˜30-40 thrombi in three mice.
Two hours prior to surgery, 100 mg/kg of the suicide P450 inhibitor 1-aminobenzotriazole (ABT) was administered intraperioneally to each mouse. The cremaster muscle was then surgically exposed. Prior to arteriolar wall injury, DyLight-labeled antibodies were infused intravenously together with drug or vehicle control. Injury to a cremaster arteriolar vessel (30-50-μm diameter) was induced with a MicroPoint laser system Andor Andor Technology, Ltd., Belfast Ireland) focused through the microscope objective, parfocal with the focal plane and tuned to 440 nm through a dye cell containing 5 mM coumarin in methanol. Data were captured digitally from two fluorescence channels, 488/520 nm and 647/670 nm, as well as a brightfield channel Data acquisition was initiated both prior to and following an ablation laser pulse for each injury. The microscope system was controlled and images were collected and analyzed using SlideBook 6.0 (Intelligent Imaging Innovations, Denver, Colo.).
Prior to induction of the thrombus but after injection of the fluorescently labeled antibody, approximately 30 time points were recorded. Subsequently, a thrombus is initiated and recorded for approximately 170 seconds. […] The mean of maximal intensity values in the upstream region for each frame is calculated and used as the threshold to define those pixels containing signal. […] Using this information, the actual integrated intensity for each frame is calculated according to the following formula: […]

CCOC(=O)c1c(CNCCN(CC)CC)n(-c2ccccc2)c2cc(Br)c(O)cc12 [bepristat 2a]
augmentation of activity of catalytically inactive PDI (AGHA) [1]: fails to augment activity
tolerability in vivo ([2]; 15 mg/kg infusion): tolerated in vivo
inhibition of platelet accumulation at sites of laser-induced injury ([2]; infusion 15 mg/kg body weight, p=0.02, FIG. 3c): 14.9 % of controls
thrombus formation in vivo ([2]; laser injury of cremaster arterioles): potently inhibits thrombus formation

Reference: patent US20180370912A1, “COMPOUNDS AND METHODS FOR TREATING DISEASES MEDIATED BY PROTEIN DISULFIDE ISOMERASE” (Beth Israel Deaconess Medical Center, Inc., priority 2017, published 2018)
